Test results published in patent publication EP0642348B1, “[…] PEPTIDES AND METHODS OF THEIR USE” (THE REGENTS OF THE UNIVERSITY OF CALIFORNIA, priority 1992, dated 2000).
No end group written: not given here.

Experiments:
[1] = tested on: isogenic phoP mutant of S. typhimurium (strain CS015 phoP102::Tn10d-Cam); experiment: agar (plate) diffusion antibacterial assay, clear zones; assay type: cell-based; conditions: phoP mutant (attenuated, avirulent) S. typhimurium; modified plate diffusion assay; result in words, compared with wild-type
From the text: (§1) • Figure 1 provides the consensus structures of mouse cryptdins 1-5 and rat cryptdin-1. Amino acid residues are indicated by single-letter code. Dashed lines are included in mouse cryptdin-4 and rat cryptdin-1 in order to preserve the consensus sequence where these peptides are shorter than other cryptdins. Invariant residues in the enteric cryptdin peptides are boxed. […] Acid extract of jejunum and ileum was chromatographed in 30% acetic acid on a P-60 column. Fractions indicated by the bracket (panel A) were pooled and rechromatographed on the P-60 column (panel B). Cryptdin containing fractions (bracket, panel B) were pooled and further purified by RP-HPLC on 0.46 x 25 cm Vydac C-18 column. Water-acetonitrile gradient elution (--) using 0.13% (vol/vol) HFBA as modifier was used to purify cryptdins 1-5. […] Samples of low molecular weight enteric peptides obtained by P-60 gel filtration (Figure 2, [panel B]) and purified cryptdins were electrophoresed on a 12.5% acid-urea gel and stained with formalin-containing Coomassie Blue. […] After incubation at 37°C for 18 hours, antimicrobial activity was evaluated by measurement of the diameters of the clear zones. […]
(§2) The antimicrobial, or antibacterial, activity of cryptdins can be measured against various pathogens. […]

[2] = tested on: wild-type Salmonella typhimurium (ATCC 10428); experiment: as above; assay type: cell-based; conditions: wild-type S. typhimurium; modified plate diffusion assay; result in words, compared with the phoP mutant
From the text: as §1, §2

[3] = tested on: phoP mutant S. typhimurium; conditions: compared to wild-type parent strains; Fields et al., Miller et al. 1990; cited from earlier work

Row | Substance | antimicrobial activity [1] | antimicrobial activity [2] | sensitivity of mutants in the phoP locus [3]
1 | NP-1: rabbit defensin (VVCACRRALCLPRERRAGFCRIRGRIHPLCCRR; ends and bridges not checked; cysteine pairing not given here; UniProt P01376 63-95, looked up) | quite similar | quite similar | particularly sensitive
2 | NP-2: rabbit defensin (VVCACRRALCLPLERRAGFCRIRGRIHPLCCRR; ends and bridges not checked; cysteine pairing not given here; UniProt P01377 63-95, looked up) |  |  | particularly sensitive
